Data as given in patent publication US9346757B2, “Pyridine derivatives and their use in the treatment of conditions associated with pathological thrombus formation” (SANOFI, priority 2012, dated 2016).

Assays:
Assay type in all cases: cell-based
LPA receptor LPAR5 [1] = target: T1, LPA receptor LPAR5 (Homo sapiens, UniProt Q9H1C0); assay: FLIPR assay, intracellular Ca2+ release in human mast cell line HMC-1; conditions: human mast cell line HMC-1, LPA-stimulated Ca2+ release, compound added 10 minutes prior LPA
T1 construct: two cell lines were used with high LPAR5 expression, the human mast cell line HMC-1; endogenous in cells; host or cells: HMC-1 human mast cell line
T1 sequence (Q9H1C0 whole entry): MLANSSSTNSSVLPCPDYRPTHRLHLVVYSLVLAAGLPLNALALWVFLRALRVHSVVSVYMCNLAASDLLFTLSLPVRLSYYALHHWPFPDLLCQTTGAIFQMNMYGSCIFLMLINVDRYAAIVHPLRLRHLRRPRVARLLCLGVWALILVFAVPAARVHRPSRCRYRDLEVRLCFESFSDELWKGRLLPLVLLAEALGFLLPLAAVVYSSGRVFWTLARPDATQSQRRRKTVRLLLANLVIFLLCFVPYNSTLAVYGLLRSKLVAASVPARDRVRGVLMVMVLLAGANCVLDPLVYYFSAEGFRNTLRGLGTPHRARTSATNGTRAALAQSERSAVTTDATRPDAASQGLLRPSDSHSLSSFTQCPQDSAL
Text: (§1) B) Use of the Fluorometric Imaging Plate Reader (FLIPR) Assay for the Determination of Intracellular Ca^2+ Release in Human Mast Cell Line HMC-1 and the Murine Microglia Cell Line BV-2
(§2) The ability of the compounds of the formula I to inhibit or bind the LPA receptor LPAR5 can be assessed by determining the intracellular Ca^2+ release in human or animal cells. For the analysis of activating potential of LPA and the inhibitory effects of compounds of the formula I two cell lines were used with high LPAR5 expression, the human mast cell line HMC-1 and the murine microglia cell line BV-2 (FIGS. 1 and 2). For the FLIPR assay using human mast cells in a 96-well-format, HMC-1 suspension cells from flask culture were harvested, resuspended and counted. 14×10^6 HMC-1 cells were transferred into a new 50 ml tube, centrifuged for 3 minutes at 540×g. The resulting cell pellet at the bottom of the tube was resuspended with 15 ml loading buffer (loading buffer contained HBSS buffer (pH 7.4), 0.1% BSA (bovine serum albumin), 2 μM FLUO-4 dye; HBSS buffer (pH 7.4) contained 1×HBSS, 20 mM HEPES, 0.01% Pluronic F-127, 2.5 mM Probenicid).
Cells in loading buffer were incubated for 45-60 minutes at 37° C. After incubation cells were centrifuged for 3 minutes at 540×g and resuspended with 21 ml of HBSS buffer (pH 7.4). Each well of a poly-D-lysine coated 96-well-plate was filled with 150 μl cell solution, an equivalent of 100 000 cells/well. The 96-well-plate was centifuged for 2 minutes at 100×g (without brake) prior a recovery time of 30 minutes at 37° C. After this procedure cells were stimulated with LPA (in HBSS pH 7.4 and 0.1% BSA) to determine the EC50 of LPA in HMC-1 cells. For the determination of the inhibitory effect of compounds of the formula I, test compounds were added to the cells in the 96-well-plate 10 minutes prior the addition of LPA. Results of the assay are expressed as % activation, and are calculated using maximum peak of activation (Amax). […]

LPA receptor LPAR5 [2] = target: T2, LPA receptor LPAR5 (Mus musculus, UniProt Q149R9); assay: FLIPR assay, intracellular Ca2+ release in murine microglia cell line BV-2; conditions: murine microglia cell line BV-2, LPA-stimulated Ca2+ release, compound added 10 minutes prior LPA
T2 construct: two cell lines were used with high LPAR5 expression, the human mast cell line HMC-1 and the murine microglia cell line BV-2; endogenous in cells; host or cells: BV-2 murine microglia cell line
T2 sequence (Q149R9 whole entry): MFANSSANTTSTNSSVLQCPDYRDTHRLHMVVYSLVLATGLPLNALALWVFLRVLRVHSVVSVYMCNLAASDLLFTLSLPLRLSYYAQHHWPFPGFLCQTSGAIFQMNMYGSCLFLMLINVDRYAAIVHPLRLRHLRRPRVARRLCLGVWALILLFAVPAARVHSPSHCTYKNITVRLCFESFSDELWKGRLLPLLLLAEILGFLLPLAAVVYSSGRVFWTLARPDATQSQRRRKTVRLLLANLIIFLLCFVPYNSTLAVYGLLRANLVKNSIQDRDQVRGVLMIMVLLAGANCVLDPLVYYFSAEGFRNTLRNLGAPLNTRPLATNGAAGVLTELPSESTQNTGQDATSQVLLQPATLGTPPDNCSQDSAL
Text: as §1, §2
Cells in loading buffer were incubated for 45-60 minutes at 37° C. […] Results of the assay are expressed as % activation, and are calculated using maximum peak of activation (Amax). […]

[3] = target: T3, platelet LPA receptor LPAR5 (Homo sapiens, UniProt Q9H1C0); assay: Aggregation assay for washed human blood platelets (LPA-induced); conditions: reduction of maximal aggregation, 5 min preincubation at 37° C.
T3 construct: the cellular pellet, consisting of human blood platelets was then dissolved in 10 ml buffer T; endogenous in cells; host or cells: washed human blood platelets from healthy volunteers
T3 sequence (Q9H1C0 whole entry): as the sequence (Q9H1C0 whole entry) above
Experimental: A) Aggregation Assay for Washed Human Blood Platelets (Thrombocytes)
Whole blood was collected from healthy volunteers using 3×20 ml syringes containing each 1/10 volume of buffered citrate. The anticoagulated whole blood was transferred into 50 ml polypropylene conical tubes (30 ml per tube). The tubes were centrifuged for 10 minutes at 150×g at room temperature without using the centrifuge brake. This procedure results in a lower phase of cellular components and a supernatant (upper phase) of platelet rich plasma (PRP). The PRP phase was collected from each tube and pooled for each donor. […] The platelet concentration was determined using a ABX Micros 60 counter. […] Platelet concentration in this solution was determined and buffer T was added to obtain a final concentration of 3.5×10^5 platelets per ml.
After 10 minutes at room temperature, 1 μl PGI2 per ml platelet solution was added and distributed into new 10 ml tubes. […] Aggregation was measured over 6 minutes at 37° C. with 1200 rpm (revolutions per minute) stirring. Results of the assay are expressed as % activation, and are calculated using maximum aggregation (Tmax) or area under curve (AUC) of the absorbance over 6 minutes. The inhibitory effect (IC50) of the test compounds was determined as the reduction of the maximal aggregation. […]

Structure (SMILES) | IC50 (LPA receptor LPAR5 [1]) [µM] | IC50 (LPA receptor LPAR5 [2]) [µM] | IC50 [3] [µM]
Cc1nc(-c2ccc(C(F)(F)F)cc2)c(-c2ccc(Cl)cc2Cl)cc1COC(C)C(=O)Nc1ccc(C(=O)O)cc1 (centres unmarked) [Example 1, 4-{2-[5-(2,4-Dichloro-phenyl)-2-methyl-6-(4-trifluoromethyl-phenyl)-pyridin-3-ylmethoxy]-propionylamino}-benzoic acid] | 3.7 | – | –
Cc1nc(-c2ccc(Cl)cc2)c(-c2ccc(Cl)cc2Cl)cc1COC(C)(C)C(=O)NCc1ccc(C(=O)O)cc1 [Example 14, 4-({2-[6-(4-Chloro-phenyl)-5-(2,4-dichloro-phenyl)-2-methyl-pyridin-3-ylmethoxy]-2-methyl-propionylamino}-methyl)-benzoic acid] | 0.13 | 3.2 | 3.6
Cc1nc(-c2ccc(Cl)cc2)c(-c2ccc(Cl)cc2Cl)cc1COC(C)(C)C(=O)NCCCC(=O)O [Example 15, 4-{2-[6-(4-Chloro-phenyl)-5-(2,4-dichloro-phenyl)-2-methyl-pyridin-3-ylmethoxy]-2-methyl-propionylamino}-butyric acid] | 1.8 | – | –
